According to patent US12180207B2 (ARRAY BIOPHARMA INC., priority 2018, dated 2024):

Key:
[1] = target: recombinant human FGFR1 catalytic domain (amino acids 308-731) (Homo sapiens (Human), UniProt P11362); experiment: FGFR1 enzyme activity assay (LanthaScreen TR-FRET); assay type: biochemical; settings: 20 min incubation at 22° C., average of multiple determinations if made, read-out: FGFR1 Enz FRET IC50
Outline: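 His-tagged FGFR1 kinase domain with 100 nM Alexa Fluor 647-poly-GT peptide and ATP in pH 7.5 HEPES/MgCl2 buffer with 2% DMSO, 20 min at 22 °C. Quenched with EDTA plus 2 nM Eu-PY20 antibody and read after 60 min. IC50 comes from a 4-parameter fit of percent of control.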

[2] = target: FGFR3 (SEQ ID NO: 5, amino acids 449-759) (Homo sapiens (Human), UniProt P22607); experiment: LC/MS FGFR3 kobs assay (covalent protein modification); assay type: binding; settings: 500 nM FGFR3, 3 μM compound
Chain of FGFR3 (SEQ ID NO: 5, amino acids 449-759) (P22607 449-759): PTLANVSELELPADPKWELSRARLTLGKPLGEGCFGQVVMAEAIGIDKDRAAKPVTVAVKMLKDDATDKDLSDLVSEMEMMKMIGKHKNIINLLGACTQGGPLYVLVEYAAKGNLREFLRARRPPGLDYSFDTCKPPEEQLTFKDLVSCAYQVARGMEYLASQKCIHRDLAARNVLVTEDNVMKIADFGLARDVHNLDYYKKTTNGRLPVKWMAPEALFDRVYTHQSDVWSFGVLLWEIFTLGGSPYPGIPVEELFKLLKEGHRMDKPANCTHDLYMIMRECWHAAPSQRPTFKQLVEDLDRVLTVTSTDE
Outline: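 kobs is the rate constant from an exponential-decay fit of percent unmodified kinase, normalized to DMSO controls, averaged over multiple determinations where available. Time-course samples of FGFR1 (458-765) and FGFR3 (449-759) with compound were acid-quenched (0.4% formic acid) and protein adducts quantified by intact-mass LC/MS.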

[3] = target: FGFR1 (SEQ ID NO: 1, amino acids 458-765) (Homo sapiens (Human), UniProt P11362); experiment: LC/MS FGFR1 kobs assay (covalent protein modification); assay type: binding; settings: 500 nM FGFR1, 3 μM compound
Chain of FGFR1 (SEQ ID NO: 1, amino acids 458-765) (P11362 458-765): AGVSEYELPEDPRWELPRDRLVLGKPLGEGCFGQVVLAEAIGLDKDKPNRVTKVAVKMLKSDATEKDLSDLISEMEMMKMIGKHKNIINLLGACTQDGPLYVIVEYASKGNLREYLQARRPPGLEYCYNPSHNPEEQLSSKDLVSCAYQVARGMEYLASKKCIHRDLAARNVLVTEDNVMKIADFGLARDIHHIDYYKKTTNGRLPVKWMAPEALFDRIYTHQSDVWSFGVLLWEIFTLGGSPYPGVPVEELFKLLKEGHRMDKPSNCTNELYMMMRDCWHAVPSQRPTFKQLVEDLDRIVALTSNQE
Outline: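 Covalent labeling of FGFR1 kinase domain (aa 458-765) tracked over time by intact-protein LC/MS after formic acid quench. kobs derived by fitting DMSO-normalized percent unmodified FGFR1 to an exponential decay model.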

[4] = target: dephosphorylated FGFR1 (SEQ ID NO: 1, amino acids 458 to 765) (Homo sapiens (Human), UniProt P11362); experiment: FGFR enzyme binding assay (HTRF tracer displacement), FGFR1; settings: 5 nM dephosphorylated FGFR1, average of multiple determinations if made
Chain of dephosphorylated FGFR1 (SEQ ID NO: 1, amino acids 458 to 765) (P11362 458-765): as above
Outline: (§1)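 Kinase and tracer were incubated with compound for 60 minutes at 22° C. Tracer displacement was then measured by HTRF, and results were expressed as POC with 1 μM control inhibitor defining full displacement.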

[5] = target: recombinant human FGFR2 cytoplasmic domain (amino acids 403-822) (Homo sapiens (Human), UniProt P21802); experiment: FGFR2 enzyme activity assay (LanthaScreen TR-FRET); assay type: biochemical; settings: 15 μM ATP, 20 min incubation at 22° C., average of multiple determinations if made, read-out: FGFR2 Enz FRET IC50
Chain of recombinant human FGFR2 cytoplasmic domain (amino acids 403-822) (P21802 402-821): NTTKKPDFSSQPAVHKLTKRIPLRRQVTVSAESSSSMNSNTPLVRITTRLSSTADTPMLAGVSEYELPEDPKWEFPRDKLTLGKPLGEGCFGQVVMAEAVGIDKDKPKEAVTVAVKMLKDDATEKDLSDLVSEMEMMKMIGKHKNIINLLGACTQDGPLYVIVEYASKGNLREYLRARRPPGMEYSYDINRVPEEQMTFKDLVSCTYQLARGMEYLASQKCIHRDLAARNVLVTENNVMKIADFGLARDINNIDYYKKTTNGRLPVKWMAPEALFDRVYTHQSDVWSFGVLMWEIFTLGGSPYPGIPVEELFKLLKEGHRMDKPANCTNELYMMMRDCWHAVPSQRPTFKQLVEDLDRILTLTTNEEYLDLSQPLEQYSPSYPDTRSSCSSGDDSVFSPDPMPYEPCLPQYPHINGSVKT
Outline: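 Substrate phosphorylation was read by TR-FRET using Eu-PY20 antibody (60 min, 22 °C) after a 20 min, 22 °C reaction. The reaction used 15 μM ATP, 100 nM fluorescent poly-GT peptide and His-tagged FGFR2 403-822 ([…]) at pH 7.5 with 2% DMSO.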

[6] = target: phosphorylated FGFR3 (SEQ ID NO: 5, amino acids 449 to 759) (Homo sapiens (Human), UniProt P22607); experiment: FGFR enzyme binding assay (HTRF tracer displacement), FGFR3; settings: 5 nM phosphorylated FGFR3, average of multiple determinations if made
Chain of phosphorylated FGFR3 (SEQ ID NO: 5, amino acids 449 to 759) (P22607 449-759): as the sequence (P22607 449-759) above
Outline: as §1

Chain of recombinant human FGFR1 catalytic domain (amino acids 308-731) (P11362 other isoform, or with tags, fused parts or gaps): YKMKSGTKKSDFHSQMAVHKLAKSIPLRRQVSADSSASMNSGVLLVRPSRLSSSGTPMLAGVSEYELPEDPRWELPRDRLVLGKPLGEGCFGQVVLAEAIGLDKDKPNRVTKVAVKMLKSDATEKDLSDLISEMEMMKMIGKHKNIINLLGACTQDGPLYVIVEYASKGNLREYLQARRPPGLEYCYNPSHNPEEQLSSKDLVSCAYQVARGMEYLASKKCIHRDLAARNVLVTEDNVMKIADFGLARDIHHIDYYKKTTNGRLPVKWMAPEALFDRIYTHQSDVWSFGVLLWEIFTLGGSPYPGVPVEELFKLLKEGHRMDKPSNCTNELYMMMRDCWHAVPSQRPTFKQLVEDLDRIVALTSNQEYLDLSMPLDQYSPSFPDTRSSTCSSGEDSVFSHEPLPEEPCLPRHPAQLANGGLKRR

| IC50 [1] | FGFR3 Enz kobs [2] | FGFR1 Enz kobs [3] | IC50 [4] | IC50 [5] | IC50 [6] | SMILES |
| --- | --- | --- | --- | --- | --- | --- |
| 15 nM | 0.189 min⁻¹ | 0.01248 min⁻¹ | 22 nM | 3 nM | 1 nM | COc1cc(-c2cnn(C3CCN(C(=O)C4CN(C(=O)C#CCO)C4)CC3)c2)cn2ncc(C#N)c12 [Example 179, 6-(1-(1-(1-(4-hydroxybut-2-ynoyl)azetidine-3-carbonyl)piperidin-4-yl)-1H-pyrazol-4-yl)-4-methoxypyrazolo[1,5-a]pyridine-3-carbonitrile] |
| 9 nM | 0.02709 min⁻¹ | 0.00249 min⁻¹ | 32 nM | 2 nM | 3 nM | COc1cc(-c2cnn(C3CCN(C(=O)C4CN(C(=O)/C=C/CCl)C4)CC3)c2)cn2ncc(C#N)c12 [Example 181, (E)-6-(1-(1-(1-(4-chlorobut-2-enoyl)azetidine-3-carbonyl)piperidin-4-yl)-1H-pyrazol-4-yl)-4-methoxypyrazolo[1,5-a]pyridine-3-carbonitrile] |
| 12 nM | 0.01781 min⁻¹ | 0.00202 min⁻¹ | 40 nM | 3 nM | 2 nM | COc1cc(-c2cnn(C3CCN(C(=O)C4CN(C(=O)/C=C/CN5CC[C@H](F)C5)C4)CC3)c2)cn2ncc(C#N)c12 [Example 182, (S,E)-6-(1-(1-(1-(4-(3-fluoropyrrolidin-1-yl)but-2-enoyl)azetidine-3-carbonyl)piperidin-4-yl)-1H-pyrazol-4-yl)-4-methoxypyrazolo[1,5-a]pyridine-3-carbonitrile] |
| 16 nM | 0.02414 min⁻¹ | 0.00259 min⁻¹ | 46 nM | 4 nM | 4 nM | COc1cc(-c2cnn(C3CCN(C(=O)C4CN(C(=O)/C=C/CN5CC[C@@H](F)C5)C4)CC3)c2)cn2ncc(C#N)c12 [Example 183, (R,E)-6-(1-(1-(1-(4-(3-fluoropyrrolidin-1-yl)but-2-enoyl)azetidine-3-carbonyl)piperidin-4-yl)-1H-pyrazol-4-yl)-4-methoxypyrazolo[1,5-a]pyridine-3-carbonitrile] |
| 15 nM | 0.00475 min⁻¹ | 0.00043 min⁻¹ | 52 nM | 4 nM | 6 nM | COc1cc(-c2cnn(C3CCN(C(=O)C4CN(C(=O)/C=C/CN5CCOCC5)C4)CC3)c2)cn2ncc(C#N)c12 [Example 184, (E)-4-methoxy-6-(1-(1-(1-(4-morpholinobut-2-enoyl)azetidine-3-carbonyl)piperidin-4-yl)-1H-pyrazol-4-yl)pyrazolo[1,5-a]pyridine-3-carbonitrile] |
| 5 nM | 0.08793 min⁻¹ | 0.01483 min⁻¹ | 14 nM | 8 nM | 2 nM | C=CS(=O)(=O)N1CCC(C(=O)N2CCC(n3cc(-c4cc(OC)c5c(C#N)cnn5c4)cn3)CC2)CC1 [Example 186, 4-methoxy-6-(1-(1-(1-(vinylsulfonyl)piperi-dine-4-carbonyl)piperidin-4-yl)-1H-pyrazol-4-yl)pyrazolo[1,5-a]pyridine-3-carbonitrile] |
